Calls of active or inactive are those of the source. The calls are words filed in the database; no cut-off is given here.
Columns and labels:
[1] = target: T1, Type 1 fimbrin D-mannose specific adhesin (Escherichia coli K-12, UniProt P08191); assay: Displacement of TM-PAA polymer from Escherichia coli FimH-CRD-Th-6-His expressed in Escherichia coli HM125 by competitive binding assay
[2] = target: Type 1 fimbrin D-mannose specific adhesin (Escherichia coli K-12) (UniProt P08191); assay: Displacement of TM-PAA polymer from Escherichia coli FimH-CRD-Th-6-His expressed in Escherichia coli HM125 by competitive binding assay relative to heptyl alpha-D-mannopyranoside
[3] = Solubility of the compound in DMSO at 10 uM; format: physicochemical
HepG2 = assay: Cytotoxicity against human HepG2 cells at 1 to 10 uM after 24 hrs by CellTiter 96 aqueous one solution cell proliferation assay; format: cell-based; details: hepg2, 24 h
[4] = target: Type 1 fimbrin D-mannose specific adhesin (Escherichia coli K-12) (UniProt P08191); assay: Displacement of TM-PAA polymer from Escherichia coli FimH-CRD-Th-6-His expressed in Escherichia coli HM125 at <1 uM by competitive binding assay
[5] = target: T1, Type 1 fimbrin D-mannose specific adhesin; assay: Binding affinity to Escherichia coli FimH
[6] = target: Type 1 fimbrin D-mannose specific adhesin (Escherichia coli K-12) (UniProt P08191); assay: Inhibition of Escherichia coli FimH relative to methyl alpha-D-mannopyranoside
[7] = target: Type 1 fimbrin D-mannose specific adhesin (Escherichia coli K-12) (UniProt P08191); assay: Inhibition of Escherichia coli FimH relative to heptyl alpha-D-mannopyranoside

Type 1 fimbrin D-mannose specific adhesin (Escherichia coli K-12), sequence (P08191 whole entry): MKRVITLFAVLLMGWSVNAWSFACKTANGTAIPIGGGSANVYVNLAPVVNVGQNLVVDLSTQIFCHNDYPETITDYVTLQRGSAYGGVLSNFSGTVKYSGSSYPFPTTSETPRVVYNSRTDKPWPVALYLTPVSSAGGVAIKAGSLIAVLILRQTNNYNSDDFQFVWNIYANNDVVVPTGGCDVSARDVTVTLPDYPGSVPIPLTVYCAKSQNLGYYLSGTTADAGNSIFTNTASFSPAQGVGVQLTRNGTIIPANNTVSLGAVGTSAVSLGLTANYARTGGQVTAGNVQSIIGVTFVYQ
T1 sequence (P08191 whole entry): as above

Row | IC50 [1] | Compound | Activity (HepG2) | further results
1 | 232 nM | O=C(O)Cc1ccc(OCC(COc2cccc3ccccc23)O[C@H]2O[C@H](CO)[C@@H](O)[C@H](O)[C@@H]2O)cc1 (some centres not stated) | Non-toxic | Ratio [2]: 0.25; solubility [3]: soluble
2 |  | O=C(Cc1ccc([N+](=O)[O-])cc1)NCC(CNC(=O)Cc1ccc([N+](=O)[O-])cc1)O[C@H]1O[C@H](CO)[C@@H](O)[C@H](O)[C@@H]1O |  | inhibition [4]: inactive
3 |  | OC[C@H]1O[C@H](OC(COc2ccccc2)COc2ccccc2)[C@@H](O)[C@@H](O)[C@@H]1O | Non-toxic | 
4 |  | OC[C@H]1OC(O)[C@@H](O)[C@@H](O)[C@@H]1O (stereo partly drawn) [D-MANNOSE] |  | Kd [5]: 2300 nM
5 |  | OC[C@H]1O[C@H](OC(COc2cccc3ccccc23)COc2cccc3ccccc23)[C@@H](O)[C@@H](O)[C@@H]1O | Non-toxic | 
6 |  | COc1ccc(OCC(COc2ccc(OC)cc2)O[C@H]2O[C@H](CO)[C@@H](O)[C@H](O)[C@@H]2O)cc1 | Non-toxic | inhibition [4]: inactive
7 | 346 nM | O=C(O)c1ccc(OCC(COc2cccc3ccccc23)O[C@H]2O[C@H](CO)[C@@H](O)[C@H](O)[C@@H]2O)cc1 (some centres not stated) | Non-toxic | Ratio [2]: 0.17; solubility [3]: soluble
8 |  | OC[C@H]1O[C@H](OC(COc2ccc3ccccc3c2)COc2ccc3ccccc3c2)[C@@H](O)[C@@H](O)[C@@H]1O | Non-toxic | inhibition [4]: inactive
9 |  | CCOc1c(Nc2ccc(O[C@H]3O[C@H](CO)[C@@H](O)[C@H](O)[C@@H]3O)c(Cl)c2)c(=O)c1=O |  | Ratio [6]: 6900
10 |  | O=[N+]([O-])c1ccc(OCC(CO[C@H]2O[C@H](CO)[C@@H](O)[C@H](O)[C@@H]2O)Oc2ccc([N+](=O)[O-])cc2)cc1 (some centres not stated) | Non-toxic | 
11 | 804 nM | O=[N+]([O-])c1ccc(OCC(COc2ccc([N+](=O)[O-])cc2)O[C@H]2O[C@H](CO)[C@@H](O)[C@H](O)[C@@H]2O)cc1 | Non-toxic | 
12 |  | O=[N+]([O-])c1ccc(O[C@H]2O[C@H](CO)[C@@H](O)[C@H](O)[C@@H]2O)c(Cl)c1 |  | Ratio [6]: 717
13 | 875 nM | COc1ccc2ccc(OCC(CO[C@H]3O[C@H](CO)[C@@H](O)[C@H](O)[C@@H]3O)Oc3ccc4ccc(OC)cc4c3)cc2c1 (some centres not stated) | Non-toxic | 
14 | 763 nM | O=C(NCC(CNC(=O)c1ccc2ccccc2c1)O[C@H]1O[C@H](CO)[C@@H](O)[C@H](O)[C@@H]1O)c1ccc2ccccc2c1 |  | 
15 |  | OC[C@H]1O[C@H](OCC(COc2cccc3ccccc23)Oc2cccc3ccccc23)[C@@H](O)[C@@H](O)[C@@H]1O (some centres not stated) | Non-toxic | inhibition [4]: inactive
16 |  | O=C(Cc1ccccc1)NCC(CNC(=O)Cc1ccccc1)O[C@H]1O[C@H](CO)[C@@H](O)[C@H](O)[C@@H]1O |  | inhibition [4]: inactive
17 |  | O=[N+]([O-])c1ccc(CCO[C@H]2O[C@H](CO)[C@@H](O)[C@H](O)[C@@H]2O)cc1 |  | Ratio [6]: 85
18 | 746 nM | CCOCC(COc1ccc2ccccc2c1)O[C@H]1O[C@H](CO)[C@@H](O)[C@H](O)[C@@H]1O (some centres not stated) | Non-toxic | Ratio [2]: 0.08
19 |  | OC[C@H]1O[C@H](OCC(COc2ccc3ccccc3c2)Oc2ccc3ccccc3c2)[C@@H](O)[C@@H](O)[C@@H]1O (some centres not stated) | Non-toxic | inhibition [4]: inactive
20 | 607 nM | O=C(NCC(CNC(=O)c1ccc[nH]1)O[C@H]1O[C@H](CO)[C@@H](O)[C@H](O)[C@@H]1O)c1ccc[nH]1 |  | 
21 | 978 nM | N#Cc1ccc(C(=O)NCC(CNC(=O)c2ccc(C#N)cc2)O[C@H]2O[C@H](CO)[C@@H](O)[C@H](O)[C@@H]2O)cc1 |  | 
22 | 58.9 nM | CCCCCCCO[C@H]1O[C@H](CO)[C@@H](O)[C@H](O)[C@@H]1O |  | 
23 | 208 nM | COc1ccc(OC(COc2ccc(O)cc2)CO[C@H]2O[C@H](CO)[C@@H](O)[C@H](O)[C@@H]2O)cc1 (some centres not stated) | Non-toxic | Ratio [2]: 0.28
24 | 212 nM | COC(=O)c1ccc2ccc(OCC(COc3ccc4ccc(OC)cc4c3)O[C@H]3O[C@H](CO)[C@@H](O)[C@H](O)[C@@H]3O)cc2c1 (some centres not stated) | Non-toxic | Ratio [2]: 0.28; solubility [3]: soluble
25 |  | OCC#Cc1ccc(O[C@H]2O[C@H](CO)[C@@H](O)[C@H](O)[C@@H]2O)cc1 |  | Kd [5]: 0.65 nM; Ratio [6]: 3380; Ratio [7]: 7.7
26 | 158 nM | COc1ccc2ccc(OCC(COc3ccc4ccc(C(=O)O)cc4c3)O[C@H]3O[C@H](CO)[C@@H](O)[C@H](O)[C@@H]3O)cc2c1 (some centres not stated) | Non-toxic | Ratio [2]: 0.37; solubility [3]: soluble
27 | 593 nM | COc1ccc2ccc(OCC(COc3ccc4ccc(OC)cc4c3)O[C@H]3O[C@H](CO)[C@@H](O)[C@H](O)[C@@H]3O)cc2c1 | Non-toxic | 
